Measured values reported in patent US8865756B2, “Inhibitors of HCV NS5A” (Presidio Pharmaceuticals, Inc., priority 2008, dated 2014).

System: HCV 1b_Huh-Luc/Neo-ET cell line persistently expressing a bicistronic genotype 1b replicon in Huh 7 cells
Assay: HCV replicon assay (luciferase readout)
Assay type: cell-based
Details: Hepatitis C virus, Huh-7, 72 h, read-out: Inhibition of HCV genotype 1b
In short: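 EC50, determined repeatedly, comes from a four-parameter logistic fit of luciferase signal as percent of untreated control. Readout follows 72 h compound exposure, in triplicate, of the HCV 1b_Huh-Luc/Neo-ET replicon line.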

SMILES	EC50
O=C(N[C@@H](C(=O)N1CCC[C@H]1C(=O)NCCc1ccc(C#Cc2cnc([C@@H]3CCCN3C(=O)[C@H](NC(=O)C3CC3)c3ccccc3)[nH]2)cc1)c1ccccc1)C1CC1 [Compound 125]	< 1 nM
COC(=O)N[C@@H](CCC(N)=O)C(=O)N1CCC[C@H]1c1ncc(-c2ccc(C#Cc3ccc4nc([C@@H]5CCCN5C(=O)[C@H](CCC(N)=O)NC(=O)OC)[nH]c4c3)cc2)[nH]1 [Compound 1051]	1 to 9.9 nM
O=C(N[C@@H](C(=O)N1CCC[C@H]1c1ncc(C#Cc2ccc(-c3cnc([C@@H]4CCCN4C(=O)[C@H](NC(=O)N4CCOCC4)c4ccccc4)[nH]3)cc2)[nH]1)c1ccccc1)N1CCOCC1 [Compound 102]	1 to 9.9 nM
CC(C)[C@@H](NC(=O)OC(C)(C)C)C(=O)N1CCC[C@H]1C(=O)Nc1ccc(C#Cc2cnc([C@@H]3CCCN3C(=O)[C@H](NC(=O)OC(C)(C)C)C(C)C)[nH]2)cc1 [Compound 114]	10 to 999 nM
C[C@@H](c1ncc(-c2ccc(C#Cc3ccc(-c4cnc([C@@H]5CCCN5C(=O)[C@H](NC(=O)OC(C)(C)C)c5ccccc5)[nH]4)cc3)cc2)[nH]1)N(C)C(=O)[C@H](NC(=O)OC(C)(C)C)c1ccccc1 [Compound 265]	< 1 nM
CC(C)[C@H](NC(=O)N1CCNCC1)C(=O)N1CCC[C@H]1c1ncc(-c2ccc(C#Cc3ccc(-c4cnc([C@@H]5CCCN5C(=O)[C@@H](NC(=O)N5CCNCC5)C(C)C)[nH]4)cc3)cc2)[nH]1 [Compound 967]	10 to 999 nM
COC(=O)N[C@H](C(=O)N1CCC[C@H]1c1ncc(-c2ccc(C#Cc3ccc(-c4cnc([C@@H]5CCCN5C(=O)[C@@H](NC5CCOCC5)C(C)C)[nH]4)cc3)cc2)[nH]1)C(C)C [Compound 1001]	1 to 9.9 nM
COC(=O)N[C@H](C(=O)N1CCC[C@H]1c1nc2ccc(C#Cc3ccc(-c4cnc([C@@H]5CCCN5C(=O)[C@H](C(C)C)N(C)C)[nH]4)cc3)cc2[nH]1)C(C)C [Compound 866]	< 1 nM
COC(=O)N[C@H](C(=O)N1CCC[C@H]1c1ncc(-c2ccc(C#Cc3ccc(-c4cnc([C@@H]5CCCN5C(=O)[C@H](NC(=O)N5CC[C@@H](O)C5)c5ccccc5)[nH]4)cc3)cc2)[nH]1)C(C)C [Compound 975]	< 1 nM
COC(=O)N[C@H](C(=O)N1CCC[C@H]1c1ncc(-c2ccc(C#Cc3ccc(-c4cnc([C@@H]5CCCN5C(=O)[C@H](NC(=O)OC)c5ccccc5)[nH]4)cc3)cc2)[nH]1)C(C)C [Compound 1002]	< 1 nM
COC(=O)N[C@@H](C(=O)N1CCC[C@H]1c1ncc(-c2ccc(C#Cc3ccc(-c4cnc([C@@H]5CCCN5C(=O)c5cccnc5)[nH]4)cc3)cc2)[nH]1)c1ccccc1 [Compound 183]	< 1 nM
O=C(N[C@@H](C(=O)N1CCC[C@H]1c1nc(-c2ccc3cc(C#Cc4cnc([C@@H]5CCCN5C(=O)[C@H](NC(=O)N5CC[C@@H](O)C5)c5ccccc5)[nH]4)ccc3c2)c[nH]1)c1ccccc1)N1CC[C@@H](O)C1 [Compound 807]	1 to 9.9 nM
C[C@@H](NC(=O)OC(C)(C)C)C(=O)N1CCC[C@H]1c1ncc(C#Cc2ccc(-c3cnc([C@@H]4CCCN4C(=O)[C@@H](C)NC(=O)OC(C)(C)C)[nH]3)cc2)[nH]1 [Compound 104]	1 to 9.9 nM
COC(=O)N[C@H](C(=O)N1CCC[C@H]1c1ncc(-c2ccc(C#Cc3ccc(-c4cnc([C@@H]5CCCN5C(=O)[C@@H](C(C)C)N(C)C)[nH]4)cc3)cc2)[nH]1)C(C)C [Compound 954]	1 to 9.9 nM
COC(=O)N[C@H](C(=O)N1CCC[C@H]1c1ncc(-c2ccc(C#Cc3ccc4nc([C@@H]5CCCN5)[nH]c4c3)cc2)[nH]1)C(C)C [Compound 1056]	10 to 999 nM
O=C([C@@H](c1ccccc1)N1CCCCC1)N1CCC[C@H]1c1ncc(-c2ccc(C#Cc3ccc(-c4cnc([C@@H]5CCCN5C(=O)[C@@H](c5ccccc5)N5CCCCC5)[nH]4)cc3)cc2)[nH]1 [Compound 205]	< 1 nM
COC(=O)N[C@H](C(=O)N1CCC[C@H]1c1ncc(-c2ccc(C#Cc3ccc4nc([C@@H]5CCCN5C(=O)[C@@H](NC(=O)OC)C(C)C)[nH]c4c3)cc2)[nH]1)C(C)C [Compound 802]	< 1 nM
COC(=O)NC1(C(=O)N2CCC[C@H]2c2ncc(-c3ccc(C#Cc4ccc5nc([C@@H]6CCCN6C(=O)C6(NC(=O)OC)CCCC6)[nH]c5c4)cc3)[nH]2)CCCC1 [Compound 1044]	10 to 999 nM
COC(=O)N[C@@H](C(=O)N1CCC[C@H]1C(=O)Nc1ccc(C#Cc2ccc(-c3cnc([C@@H]4CCCN4C(=O)[C@H](NC(=O)OC)c4ccccc4)[nH]3)cc2)cc1)c1ccccc1 [Compound 171]	< 1 nM
COCCOc1c(C#Cc2ccc3nc([C@@H]4CCCN4C(=O)[C@@H](NC(=O)OC)C(C)C)[nH]c3c2)ccc(-c2cnc([C@@H]3CCCN3C(=O)[C@H](NC(=O)OC)C(C)C)[nH]2)c1OCCOC [Compound 1066]	< 1 nM
COC(=O)NC(C(=O)N1CCC[C@H]1c1ncc(-c2ccc(C#Cc3ccc(-c4cnc([C@@H]5CCCN5C(=O)[C@@H](NC(=O)OC)C(C)C)[nH]4)cc3)cc2)[nH]1)[C@@H](C)OC (stereo partly drawn) [Compound 972]	< 1 nM

SMILES	EC50
COC(=O)N[C@@H](C(=O)N1CCC[C@H]1c1ncc(-c2ccc(C#Cc3ccc(-c4cnc([C@@H]5CCCN5C(=O)[C@H](NC(=O)N5CC[C@H](OC)C5)c5ccccc5)[nH]4)cc3)cc2)[nH]1)c1ccccc1 [Compound 272]	< 1 nM
COC(=O)N[C@H](C(=O)N[C@@H](C)c1ncc(-c2ccc(C#Cc3ccc(-c4cnc([C@@H]5CCCN5C(=O)[C@@H](NC(=O)OC)[C@@H](C)O)[nH]4)cc3)cc2)[nH]1)[C@@H](C)O [Compound 291]	< 1 nM
COC(=O)N[C@@H](CC(=O)O)C(=O)N1CCC[C@H]1c1ncc(-c2ccc(C#Cc3ccc4nc([C@@H]5CCCN5C(=O)[C@H](CC(=O)O)NC(=O)OC)[nH]c4c3)cc2)[nH]1 [Compound 1061]	10 to 999 nM
CC(C)[C@@H](NC(=O)OC(C)(C)C)C(=O)N1CCC[C@H]1c1ncc(-c2ccc(C#Cc3ccc(-c4cnc([C@@H]5CCCN5C(=O)[C@H](NC(=O)OC(C)(C)C)C(C)C)[nH]4)cc3)cc2)[nH]1 [Compound 152]	10 to 999 nM
O=C(N[C@@H](C(=O)N1CCC[C@H]1c1ncc(C#Cc2ccc(C#Cc3cnc([C@@H]4CCCN4C(=O)[C@H](NC(=O)N4CCOCC4)c4ccccc4)[nH]3)cc2)[nH]1)c1ccccc1)N1CCOCC1 [Compound 309]	< 1 nM
COC(=O)N[C@@H](C(=O)N1CCC[C@H]1c1ncc(-c2ccc(C#Cc3ccc(-c4cnc([C@@H]5CCCN5C(=O)[C@H](NC(=O)C5(O)CC5)c5ccccc5)[nH]4)cc3)cc2)[nH]1)c1ccccc1 [Compound 277]	< 1 nM
COC(=O)N[C@@H](C(=O)N1CCC[C@H]1c1ncc(C#Cc2ccc(-c3cnc([C@@H]4CCCN4C(=O)[C@@H](c4ccccc4)N(C)C)[nH]3)cc2)[nH]1)c1ccccc1 [Compound 123]	< 1 nM
COC(=O)N[C@@H](CC(=O)N1CCC[C@H]1c1ncc(-c2ccc(C#Cc3ccc4nc([C@@H]5CCCN5C(=O)C[C@H](NC(=O)OC)C(C)C)[nH]c4c3)cc2)[nH]1)C(C)C [Compound 1064]	10 to 999 nM
CC(C)[C@@H](NC(=O)C1CC1)C(=O)N1CCC[C@H]1c1ncc(C#Cc2ccc(-c3cnc([C@@H]4CCCN4C(=O)[C@H](NC(=O)C4CC4)C(C)C)[nH]3)cc2)[nH]1 [Compound 107]	1 to 9.9 nM
CC(C)(C)OC(=O)NC(C)(C)C(=O)N1CCC[C@H]1c1ncc(C#Cc2ccc(-c3cnc([C@@H]4CCCN4C(=O)C(C)(C)NC(=O)OC(C)(C)C)[nH]3)cc2)[nH]1 [Compound 106]	> 1000 nM
CCN(CC)[C@@H](C(=O)N1CCC[C@H]1c1ncc(-c2ccc(C#Cc3ccc(-c4cnc([C@@H]5CCCN5C(=O)[C@H](NS(C)(=O)=O)c5ccccc5)[nH]4)cc3)cc2)[nH]1)c1ccccc1 [Compound 229]	< 1 nM
COC(=O)N[C@H](C(=O)N1CCOC[C@H]1c1ncc(-c2ccc(C#Cc3ccc4nc([C@@H]5CCCN5C(=O)[C@@H](NC(=O)OC)C(C)C)[nH]c4c3)cc2)[nH]1)C(C)C [Compound 1027]	< 1 nM
O=C(N[C@@H](C(=O)N1CCC[C@H]1c1ncc(-c2ccc(C#Cc3ccc(-c4cnc([C@@H]5CCCN5C(=O)[C@@H](c5ccccc5)N5CCCC5)[nH]4)cc3)cc2)[nH]1)c1ccccc1)C1CC1 [Compound 217]	< 1 nM
COC(=O)N[C@H](C(=O)N[C@H](c1ncc(-c2ccc(C#Cc3ccc(-c4cnc([C@@H]5CCCN5C(=O)[C@@H](NC(=O)OC)C(C)C)[nH]4)cc3)cc2)[nH]1)C(C)C)C(C)C [Compound 276]	1 to 9.9 nM
COC(=O)N[C@H](C(=O)N[C@@H](C)c1ncc(-c2ccc(C#Cc3ccc(-c4cnc([C@@H]5CCCN5C(=O)[C@@H](C(C)C)N(C)C)[nH]4)cc3)cc2)[nH]1)C(C)C [Compound 964]	1 to 9.9 nM
CC1(O)CCN(C(=O)N[C@@H](C(=O)N2CCC[C@H]2c2ncc(C#Cc3ccc(-c4ccc(-c5cnc([C@@H]6CCCN6C(=O)[C@H](NC(=O)N6CCC(C)(O)CC6)c6ccccc6)[nH]5)cc4)cc3)[nH]2)c2ccccc2)CC1 [Compound 870]	< 1 nM
CC(C)[C@@H](NC(=O)OC(C)(C)C)C(=O)N1CCC[C@H]1c1ncc(C#Cc2ccc(-c3cnc([C@@H]4CCCN4C(=O)[C@H](NC(=O)OC(C)(C)C)C(C)C)[nH]3)cc2)[nH]1 [Compound 105]	10 to 999 nM
C[C@H](NC(=O)[C@H](NC(=O)OC(C)(C)C)c1ccccc1)c1ncc(-c2ccc(C#Cc3ccc(-c4cnc([C@@H]5CCCN5C(=O)[C@H](NC(=O)OC(C)(C)C)c5ccccc5)[nH]4)cc3)cc2)[nH]1 [Compound 280]	< 1 nM
COC(=O)N[C@H](C(=O)N1CCC[C@H]1c1nc(-c2cnc3cc(C#Cc4ccc(-c5cnc([C@@H]6CCCN6C(=O)[C@@H](NC(=O)OC)C(C)C)[nH]5)cc4)ccc3c2)c[nH]1)C(C)C [Compound 1088]	1 to 9.9 nM
C[C@@H](NC(=O)[C@@H]1CCCN1C(=O)[C@H](NC(=O)C1CC1)c1ccccc1)c1ccc(C#Cc2ccc(-c3cnc([C@@H]4CCCN4C(=O)[C@H](NC(=O)C4CC4)c4ccccc4)[nH]3)cc2)cc1 [Compound 168]	< 1 nM
COC(=O)NC(C)(C)C(=O)N1CCC[C@H]1c1ncc(-c2ccc(C#Cc3ccc4nc([C@@H]5CCCN5C(=O)C(C)(C)NC(=O)OC)[nH]c4c3)cc2)[nH]1 [Compound 1050]	10 to 999 nM
